Measurements from PubChem BioAssay AID252 (DTP/NCI, 2004).
Where “and” joins values, the source holds several entries; their conditions need not be identical. Identical values can stand only once. Toxic doses and inconclusive results are not listed.

System: BDF1 mice, intracerebral L1210 leukemia, survival T/C
Experiment: NCI In Vivo Anticancer Drug Screen. Data for tumor model L1210 Leukemia (intracerebral) in B6D2F1 (BDF1) mice
Conditions: endpoint: mean survival time, higher = longer survival
Outline: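 Transplantable tumour-bearing mice, compound-treated vs vehicle controls; read-out survival, reported as T/C ratio.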

[1] = dose: 6.25 mg/kg/injection, schedule: Q01DX009 (ip), vehicle: saline
[2] = dose: 12.5 mg/kg/injection, schedule: Q01DX009 (ip), vehicle: saline
[3] = dose: 25.0 mg/kg/injection, schedule: Q01DX009 (ip), vehicle: saline

SMILES: O=c1cnn(C2OC(CO)C(O)C2O)c(=O)[nH]1 (stereo unspecified)
- T/C (dose: 750.0 mg/kg/injection, schedule: Q01DX Z (ip), vehicle: saline): 158 % of control

SMILES: Cc1ncc(CNC(=O)N(CCCl)N=O)c(N)n1
- T/C (dose: 6.25 mg/kg/injection, schedule: Q01DX001 (ip), vehicle: saline): 104 % of control
- T/C [1]: 158 % of control
- T/C [2]: 160 % of control
- T/C (dose: 25.0 mg/kg/injection, schedule: Q01DX001 (ip), vehicle: saline): 153 % of control
- T/C (dose: 50.0 mg/kg/injection, schedule: Q01DX001 (ip), vehicle: saline): 153 % of control
- T/C (dose: 100.0 mg/kg/injection, schedule: Q01DX001 (ip), vehicle: saline): 104 % of control

SMILES: NCCCCS(=O)(=O)Nc1ccc(Nc2c3ccccc3nc3cc([N+](=O)[O-])ccc23)cc1
- T/C [3]: 97 % of control
- T/C (dose: 50.0 mg/kg/injection, schedule: Q01DX009 (ip), vehicle: saline): 99 % of control

SMILES: CCCCC(=O)N(c1ccc(Nc2c3ccccc3nc3cc([N+](=O)[O-])ccc23)cc1)S(C)(=O)=O
- T/C (dose: 3.18 mg/kg/injection, schedule: Q01DX009 (ip), vehicle: saline): 96 % of control
- T/C (dose: 3.18 mg/kg/injection, schedule: Q01DX009 (sc), vehicle: saline): 104 % of control
- T/C [1]: 99 % of control
- T/C (dose: 6.25 mg/kg/injection, schedule: Q01DX009 (sc), vehicle: saline): 105 % of control
- T/C [2]: 101 % of control
- T/C (dose: 12.5 mg/kg/injection, schedule: Q01DX009 (sc), vehicle: saline): 103 % of control
- T/C [3]: 97 % of control
- T/C (dose: 25.0 mg/kg/injection, schedule: Q01DX009 (sc), vehicle: saline): 102 % of control

SMILES: O=NN(CCCl)C(=O)Nc1cccc2cccnc12
- T/C (dose: 1.0 mg/kg/injection, schedule: Q01DX001 (ip), vehicle: carboxymethylcellulose (CMC)): 101 % of control
- T/C (dose: 1.5 mg/kg/injection, schedule: Q01DX001 (ip), vehicle: carboxymethylcellulose (CMC)): 103 % of control
- T/C (dose: 2.6 mg/kg/injection, schedule: Q01DX001 (ip), vehicle: carboxymethylcellulose (CMC)): 104 % of control
- T/C (dose: 4.0 mg/kg/injection, schedule: Q01DX001 (ip), vehicle: carboxymethylcellulose (CMC)): 105 % of control
- T/C (dose: 6.0 mg/kg/injection, schedule: Q01DX001 (ip), vehicle: carboxymethylcellulose (CMC)): 101 % of control
- T/C (dose: 9.0 mg/kg/injection, schedule: Q01DX001 (ip), vehicle: carboxymethylcellulose (CMC)): 102 % of control
- T/C (dose: 12.0 mg/kg/injection, schedule: Q01DX001 (ip), vehicle: carboxymethylcellulose (CMC)): 98 % of control
- T/C (dose: 18.0 mg/kg/injection, schedule: Q01DX001 (ip), vehicle: carboxymethylcellulose (CMC)): 98 % of control

SMILES: CC(=O)NC1=C(N2CC2)C(=O)C(NC(C)=O)=C(N2CC2)C1=O
- T/C (dose: 0.12 mg/kg/injection, schedule: Q01DX009 (ip), vehicle: saline with Tween-80): 105 % of control
- T/C (dose: 0.25 mg/kg/injection, schedule: Q01DX005 (ip), vehicle: saline with Tween-80): 97 % of control
- T/C (dose: 0.25 mg/kg/injection, schedule: Q01DX009 (ip), vehicle: saline with Tween-80): 105 % of control
- T/C (dose: 0.25 mg/kg/injection, schedule: Q01DX009 (ip), vehicle: saline): 110 % of control and 117 % of control
- T/C (dose: 0.5 mg/kg/injection, schedule: Q01DX005 (ip), vehicle: saline with Tween-80): 105 % of control
- T/C (dose: 0.5 mg/kg/injection, schedule: Q01DX009 (ip), vehicle: saline with Tween-80): 108 % of control
- T/C (dose: 0.5 mg/kg/injection, schedule: Q01DX Z (ip), vehicle: carboxymethylcellulose (CMC)): 113 % of control
- T/C (dose: 1.0 mg/kg/injection, schedule: Q01DX005 (ip), vehicle: saline with Tween-80): 111 % of control
- T/C (dose: 2.0 mg/kg/injection, schedule: Q01DX005 (ip), vehicle: saline with Tween-80): 115 % of control
- T/C (dose: 2.0 mg/kg/injection, schedule: Q01DX009 (ip), vehicle: saline): 96 % of control and 98 % of control
- T/C (dose: 2.0 mg/kg/injection, schedule: Q01DX Z (ip), vehicle: carboxymethylcellulose (CMC)): 119 % of control
